Blank lines part the entries; values can stand above or below the compound they belong to. Where a SMILES comes first, the peptide text is derived from it.
Assays:
Assay type in all cases: cell-based
CXCR4 receptor = CXCR4 receptor (Homo sapiens, UniProt P61073); assay: Inhibition of SDF-1α-induced intracellular calcium release (Fura-2/AM) in HeLa and U87 cells; conditions: for Concentration, required for inhibition of signal transduction: SDF-1α-induced intracellular calcium release, Table 2
Experimental: The effect of the peptides on CXCR4-mediated calcium fluxes in HeLa cells that naturally express the CXCR4 receptor and U87 cells stably expressing the CXCR4 receptor was tested as follows. Cells grown on Nunc cover glass chamber slides were incubated with 1 micromolar Fura-2/AM for 20 min in a CO2-incubator, rinsed with PBS and mounted on the stage of a Zeiss Axiovert inverted microscope. [Ca^2+]i measurements were performed using an Attofluor digital imaging system (Atto Instruments, Rockville, Md.). Fluorescence of Fura was excited at alternating wavelength of 340 and 380 nm. […] Calibrations of [Ca^2+]i signals were performed using Ca^2+ standards containing 1 micromolar Fura. CXCR4 antagonists were tested on HeLa cells and U87 cells. Stromal cell-derived factor-1α (SDF-1α) was used as a specific CXCR4 agonist. CCR5 antagonists, which were used in selectivity studies as described below, were tested on HEK (human kidney […]) cells stably expressing the CCR5 receptor and RANTES was used as an agonist. The antagonist activity of the peptides was evaluated by measuring the inhibition of agonist-evoked intracellular Ca^2+i release. These measurements were carried out in Fura-2/AM-treated cells, utilizing an Attofluor digital imaging system as described above. The agonist was SDF-1 α.

HIV-1RF = assay: Anti-HIV-1 cytoprotection assay, CEM-SS cells infected with HIV-1RF; conditions: HIV-1 strain RF, FIG. 2
CCR5 receptor = molecular target: T1, CCR5 receptor (Homo sapiens, UniProt P51681); assay: Inhibition of agonist (RANTES)-evoked intracellular calcium release through CCR5; conditions: U87 cells as printed
T1 construct: expressed in transfected cells
Experimental: CCR5 antagonists, which were used in selectivity studies as described below, were tested on HEK (human kidney […]) cells stably expressing the CCR5 receptor and RANTES was used as an agonist. The antagonist activity of the peptides was evaluated by measuring the inhibition of agonist-evoked intracellular Ca^2+i release. These measurements were carried out in Fura-2/AM-treated cells, utilizing an Attofluor digital imaging system as described above. The agonist was SDF-1 α.

LAV strain of HIV-1 = assay: Anti-HIV-1 assay, CEM-SS cells infected with LAV strain, p24 ELISA; conditions: FIG. 1
Experimental: The ability of synthetic CXCR4-derived peptides of Table 1 to inhibit HIV-1 infection of CEM-SS cells was tested using an LAV strain of the virus that is known to utilize CXCR4 as a co-receptor. Anti-HIV-1 assay. Buckheit et al. (1993) Antiviral Research 21: 247. The CEM-SS cells were maintained in RPMI 1640 medium containing 10% fetal bovine serum. The cells were placed in each well of a 96-well microtiter plate to a density of 5×10^3 cells per well. The cells were infected with HIV-1 virus at a multiplicity of infection (MOI) previously determined to produce maximal level of viral production at 6 days post infection (MOI of 0.01).
Serial half-log dilutions of test compound were added to appropriate wells in triplicate to evaluate their ability to inhibit HIV-1 infection. AZT was used in parallel as a positive control. Following 6 days of incubation at 37° C., the presence and relative abundance of viral p24 protein was determined by ELISA in cell-free supernatants derived from each well of the microtiter plate. The p24 ELISA kit was purchased from the AIDS Vaccine Program, NCI, FCRDC (Frederick, Md.) and the assay was performed according to the manufacturer's instructions.

CCKAR = molecular target: T2, CCKAR (Rattus norvegicus, UniProt P30551); assay: Inhibition of CCK-8-induced intracellular calcium release in CHO cells stably transfected with rat CCKAR
T2 construct: expressed in transfected cells; host or cells: CHO cells
T2 sequence (P30551 1-444): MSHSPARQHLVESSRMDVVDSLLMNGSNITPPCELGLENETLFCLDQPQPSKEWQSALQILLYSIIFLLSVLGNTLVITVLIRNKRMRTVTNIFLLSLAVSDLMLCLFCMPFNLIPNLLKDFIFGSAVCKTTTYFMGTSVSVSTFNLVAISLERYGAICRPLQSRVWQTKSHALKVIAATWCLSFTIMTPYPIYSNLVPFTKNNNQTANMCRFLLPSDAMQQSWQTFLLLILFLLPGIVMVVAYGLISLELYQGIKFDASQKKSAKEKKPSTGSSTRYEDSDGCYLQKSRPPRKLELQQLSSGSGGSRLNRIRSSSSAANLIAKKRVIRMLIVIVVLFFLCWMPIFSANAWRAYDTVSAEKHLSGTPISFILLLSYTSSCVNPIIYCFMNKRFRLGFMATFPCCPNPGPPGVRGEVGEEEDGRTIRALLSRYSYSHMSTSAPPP
Experimental: The activity of peptides from the CCKAR transmembrane domain were tested in transfected CHO cells that stably express rat CCKAR (Tarasova et al. (1997), J. Biol. Chem. 272: 14817–14824). Sulfated cholecystokinin octapeptide was the CCKAR agonist. Determination of intracellular calcium release was performed as described in example 1 above.
None of CCKAR-derived peptides served as antagonists of chemokine receptors and none could inhibit HIV-1 infection. The activity of the antagonists in inhibiting signaling through the receptor was compared to the ability to prevent agonist binding (Table 4). Inhibition of signaling was assessed in CCK-8 evoked intracellular calcium release in FURA-2/AM treated CHO cells stably transfected with rat CCKAR (Tarasova, et al. (1997) J. Biol. Chem. 272:14817). Inhibition of ligand binding was measured with the use of a fluorescent agonist, rhodamine green CCK-8 (RG-CCK-8) and quantitative confocal laser scanning microscopy (Tarasova, et al. (1997) J. Biol. Chem. 272:14817). Peptides derived from the first, second, and sixth transmembrane domains inhibited CCK-induced signaling through the CCKAR receptor.

Sequence of CXCR4 receptor (P61073 whole entry): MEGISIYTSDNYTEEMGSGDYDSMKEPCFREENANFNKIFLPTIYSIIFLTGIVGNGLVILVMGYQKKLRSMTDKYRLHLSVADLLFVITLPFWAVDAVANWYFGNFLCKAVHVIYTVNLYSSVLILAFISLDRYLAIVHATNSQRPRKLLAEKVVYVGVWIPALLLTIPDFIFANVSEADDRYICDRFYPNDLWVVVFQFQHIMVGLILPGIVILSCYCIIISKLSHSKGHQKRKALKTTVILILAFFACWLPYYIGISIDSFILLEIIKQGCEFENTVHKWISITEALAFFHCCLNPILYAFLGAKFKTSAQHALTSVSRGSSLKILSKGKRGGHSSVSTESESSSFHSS
T1 sequence (P51681 whole entry): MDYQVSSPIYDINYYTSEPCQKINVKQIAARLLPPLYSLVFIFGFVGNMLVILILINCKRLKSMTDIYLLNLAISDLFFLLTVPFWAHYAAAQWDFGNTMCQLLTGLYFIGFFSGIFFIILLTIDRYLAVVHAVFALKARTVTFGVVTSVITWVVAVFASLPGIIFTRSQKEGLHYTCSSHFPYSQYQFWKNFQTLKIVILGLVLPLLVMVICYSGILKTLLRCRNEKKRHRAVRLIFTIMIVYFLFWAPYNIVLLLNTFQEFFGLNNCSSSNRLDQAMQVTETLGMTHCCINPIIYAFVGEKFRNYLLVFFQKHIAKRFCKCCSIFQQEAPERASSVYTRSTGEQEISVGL

Concentration, required for inhibition of signal transduction (CXCR4 receptor): 5 µM
Compound: CC[C@H](C)[C@H](NC(=O)[C@H](Cc1ccccc1)NC(=O)[C@H](CC(=O)O)NC(=O)[C@@H]1CCCN1C(=O)[C@@H](NC(=O)[C@@H](NC(=O)[C@H](CC(C)C)NC(=O)[C@H](CC(C)C)NC(=O)[C@H](CC(C)C)NC(=O)[C@H](C)NC(=O)[C@@H]1CCCN1C(=O)[C@@H](NC(=O)[C@H](Cc1c[nH]c2ccccc12)NC(=O)[C@@H](NC(=O)CNC(=O)[C@@H](NC(=O)[C@H](Cc1ccc(O)cc1)NC(=O)[C@@H](N)C(C)C)C(C)C)C(C)C)[C@@H](C)CC)[C@@H](C)O)[C@@H](C)CC)C(=O)N[C@@H](Cc1ccccc1)C(=O)N[C@@H](C)C(=O)N[C@@H](CC(N)=O)C(=O)N[C@@H](CC(=O)O)C(=O)N[C@@H](CC(=O)O)C(=O)O [Peptide F-4-2] (H-VYVGVWIPALLLTIPDFIFANDD-OH; N-terminus and C-terminus assumed)
Concentration that completely inhibited infection (HIV-1RF): 1 µM

Compound: LFFL LTVPFWAHYAAAQWDFGDD (LFFLLTVPFWAHYAAAQWDFGDD; CCR5-TM-2-2 GPCR CCR5)
Antagonist activity on CXCR4 signaling, in words (CXCR4 receptor): no effect
Concentration at which agonist induced signaling of the receptor was completely abolished (CCR5 receptor): 500 nM

Compound: CC[C@H](C)[C@H](NC(=O)[C@@H](NC(=O)[C@H](Cc1ccccc1)NC(=O)[C@H](CC(C)C)NC(=O)[C@@H](N)CC(C)C)C(C)C)C(=O)N[C@H](C(=O)N[C@@H](CC(C)C)C(=O)N1CCC[C@H]1C(=O)N[C@@H](Cc1ccccc1)C(=O)N[C@@H](Cc1c[nH]c2ccccc12)C(=O)N[C@@H](C)C(=O)N[C@H](C(=O)N[C@@H](CC(=O)O)C(=O)N[C@@H](C)C(=O)N[C@H](C(=O)N[C@@H](C)C(=O)N[C@@H](CC(N)=O)C(=O)N[C@@H](Cc1c[nH]c2ccccc12)C(=O)N[C@@H](Cc1ccc(O)cc1)C(=O)N[C@@H](Cc1ccccc1)C(=O)NCC(=O)N[C@@H](CC(N)=O)C(=O)N[C@@H](CC(=O)O)C(=O)N[C@@H](CC(=O)O)C(=O)O)C(C)C)C(C)C)[C@@H](C)O [Peptide F-2-2] (H-LLFVITLPFWAVDAVANWYFGNDD-OH; N-terminus and C-terminus assumed)
Concentration that completely inhibited infection (LAV strain of HIV-1): 5 µM
Concentration at which signal transduction was completely blocked (CXCR4 receptor): 0.2 µM
Concentration, required for inhibition of signal transduction (CXCR4 receptor): 0.2 µM
Concentration, required for complete inhibition of [Ca^2+I] release (CXCR4 receptor; TM2-derived peptides, Table 3): 0.2 µM

Concentration, required for inhibition of signaling (CCKAR; CCK-8-induced intracellular calcium release): 2 µM
Potency in inhibition of ligand signaling compared with binding (CCKAR; signaling versus RG-CCK-8 binding): comparable potencies
Compound: CSCC[C@H](NC(=O)[C@H](CC(C)C)NC(=O)[C@H](CC(=O)O)NC(=O)[C@H](CO)NC(=O)[C@@H](NC(=O)[C@H](C)NC(=O)[C@H](CC(C)C)NC(=O)[C@H](CO)NC(=O)[C@H](CC(C)C)NC(=O)[C@H](CC(C)C)NC(=O)[C@@H](N)Cc1ccccc1)C(C)C)C(=O)N[C@@H](CC(C)C)C(=O)N[C@@H](CS)C(=O)N[C@@H](CC(C)C)C(=O)N[C@@H](Cc1ccccc1)C(=O)N[C@@H](CS)C(=O)N[C@@H](CCSC)C(=O)N1CCC[C@H]1C(=O)N[C@@H](Cc1ccccc1)C(=O)N[C@@H](CC(N)=O)C(=O)N[C@@H](CC(C)C)C(=O)N1CCC[C@H]1C(=O)O [CCKAR-TM-2-1] (H-FLLSLAVSDLMLCLFCMPFNLP-OH)
